Test results reported in patent publication US12685735B2 (Foghorn Therapeutics Inc., priority 2020, dated 2026).

Experiments:
BRG-1 = BRG-1 (Homo sapiens, UniProt P51532); test: ATPase catalytic activity assay of BRG-1 (ADP-Glo); assay type: biochemical; settings: ATPase catalytic activity, ADP-Glo; for IC50: read-out: BRG1 IC50 (μM)*; for Emax: read-out: BRG1 Max % Inhibition
Method in brief: (§1)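 Luminescent ADP-Glo readout of ADP generated by ATP hydrolysis. Post-reaction: ATP depletion reagent, RT 40 min; detection reagent converting ADP→ATP, RT 60 min; luminescence read.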

BRM = BRM (Homo sapiens, UniProt P51531); test: ATPase catalytic activity assay of BRM (ADP-Glo); assay type: biochemical; settings: for IC50: read-out: BRM IC50 (μM)*
Method in brief: as §1

BRM, sequence (P51531 whole entry): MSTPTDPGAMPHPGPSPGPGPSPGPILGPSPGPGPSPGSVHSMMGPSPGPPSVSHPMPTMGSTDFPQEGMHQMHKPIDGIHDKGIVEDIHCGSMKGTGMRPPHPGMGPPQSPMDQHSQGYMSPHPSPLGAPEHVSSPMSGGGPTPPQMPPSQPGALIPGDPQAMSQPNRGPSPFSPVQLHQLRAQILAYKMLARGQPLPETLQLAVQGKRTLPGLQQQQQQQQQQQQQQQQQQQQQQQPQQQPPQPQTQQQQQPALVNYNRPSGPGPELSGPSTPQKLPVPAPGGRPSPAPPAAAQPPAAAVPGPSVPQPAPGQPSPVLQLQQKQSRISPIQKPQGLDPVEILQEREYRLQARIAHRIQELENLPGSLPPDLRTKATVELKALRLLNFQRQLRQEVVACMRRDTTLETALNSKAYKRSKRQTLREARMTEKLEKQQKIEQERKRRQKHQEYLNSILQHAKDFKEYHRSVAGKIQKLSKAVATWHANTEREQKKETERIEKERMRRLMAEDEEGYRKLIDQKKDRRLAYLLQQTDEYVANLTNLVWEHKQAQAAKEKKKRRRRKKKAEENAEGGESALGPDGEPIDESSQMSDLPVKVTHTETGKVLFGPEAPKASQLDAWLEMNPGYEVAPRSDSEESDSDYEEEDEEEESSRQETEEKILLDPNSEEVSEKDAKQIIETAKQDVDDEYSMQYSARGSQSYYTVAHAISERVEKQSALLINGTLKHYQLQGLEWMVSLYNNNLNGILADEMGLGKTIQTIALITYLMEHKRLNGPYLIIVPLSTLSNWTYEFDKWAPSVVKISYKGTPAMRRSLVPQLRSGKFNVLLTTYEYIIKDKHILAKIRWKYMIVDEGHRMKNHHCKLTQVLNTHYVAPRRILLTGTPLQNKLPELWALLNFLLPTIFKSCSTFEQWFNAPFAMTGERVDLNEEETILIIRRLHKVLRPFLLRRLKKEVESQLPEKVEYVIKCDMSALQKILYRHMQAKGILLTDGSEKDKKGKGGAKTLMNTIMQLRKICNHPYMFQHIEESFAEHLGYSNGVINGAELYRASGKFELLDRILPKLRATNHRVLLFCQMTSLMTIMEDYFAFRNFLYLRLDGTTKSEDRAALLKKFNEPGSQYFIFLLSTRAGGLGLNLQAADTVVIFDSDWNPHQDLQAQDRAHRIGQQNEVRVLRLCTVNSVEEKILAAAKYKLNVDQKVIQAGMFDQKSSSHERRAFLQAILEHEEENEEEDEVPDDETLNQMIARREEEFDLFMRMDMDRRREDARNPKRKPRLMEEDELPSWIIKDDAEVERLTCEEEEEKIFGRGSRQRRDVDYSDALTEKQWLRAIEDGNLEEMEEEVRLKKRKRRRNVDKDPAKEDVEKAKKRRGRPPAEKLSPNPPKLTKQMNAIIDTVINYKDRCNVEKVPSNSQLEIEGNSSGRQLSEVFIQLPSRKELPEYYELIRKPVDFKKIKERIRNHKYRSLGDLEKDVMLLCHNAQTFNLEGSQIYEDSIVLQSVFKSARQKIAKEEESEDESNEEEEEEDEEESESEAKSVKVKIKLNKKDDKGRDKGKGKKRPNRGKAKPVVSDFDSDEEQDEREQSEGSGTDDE
BRG-1, sequence (P51532 whole entry): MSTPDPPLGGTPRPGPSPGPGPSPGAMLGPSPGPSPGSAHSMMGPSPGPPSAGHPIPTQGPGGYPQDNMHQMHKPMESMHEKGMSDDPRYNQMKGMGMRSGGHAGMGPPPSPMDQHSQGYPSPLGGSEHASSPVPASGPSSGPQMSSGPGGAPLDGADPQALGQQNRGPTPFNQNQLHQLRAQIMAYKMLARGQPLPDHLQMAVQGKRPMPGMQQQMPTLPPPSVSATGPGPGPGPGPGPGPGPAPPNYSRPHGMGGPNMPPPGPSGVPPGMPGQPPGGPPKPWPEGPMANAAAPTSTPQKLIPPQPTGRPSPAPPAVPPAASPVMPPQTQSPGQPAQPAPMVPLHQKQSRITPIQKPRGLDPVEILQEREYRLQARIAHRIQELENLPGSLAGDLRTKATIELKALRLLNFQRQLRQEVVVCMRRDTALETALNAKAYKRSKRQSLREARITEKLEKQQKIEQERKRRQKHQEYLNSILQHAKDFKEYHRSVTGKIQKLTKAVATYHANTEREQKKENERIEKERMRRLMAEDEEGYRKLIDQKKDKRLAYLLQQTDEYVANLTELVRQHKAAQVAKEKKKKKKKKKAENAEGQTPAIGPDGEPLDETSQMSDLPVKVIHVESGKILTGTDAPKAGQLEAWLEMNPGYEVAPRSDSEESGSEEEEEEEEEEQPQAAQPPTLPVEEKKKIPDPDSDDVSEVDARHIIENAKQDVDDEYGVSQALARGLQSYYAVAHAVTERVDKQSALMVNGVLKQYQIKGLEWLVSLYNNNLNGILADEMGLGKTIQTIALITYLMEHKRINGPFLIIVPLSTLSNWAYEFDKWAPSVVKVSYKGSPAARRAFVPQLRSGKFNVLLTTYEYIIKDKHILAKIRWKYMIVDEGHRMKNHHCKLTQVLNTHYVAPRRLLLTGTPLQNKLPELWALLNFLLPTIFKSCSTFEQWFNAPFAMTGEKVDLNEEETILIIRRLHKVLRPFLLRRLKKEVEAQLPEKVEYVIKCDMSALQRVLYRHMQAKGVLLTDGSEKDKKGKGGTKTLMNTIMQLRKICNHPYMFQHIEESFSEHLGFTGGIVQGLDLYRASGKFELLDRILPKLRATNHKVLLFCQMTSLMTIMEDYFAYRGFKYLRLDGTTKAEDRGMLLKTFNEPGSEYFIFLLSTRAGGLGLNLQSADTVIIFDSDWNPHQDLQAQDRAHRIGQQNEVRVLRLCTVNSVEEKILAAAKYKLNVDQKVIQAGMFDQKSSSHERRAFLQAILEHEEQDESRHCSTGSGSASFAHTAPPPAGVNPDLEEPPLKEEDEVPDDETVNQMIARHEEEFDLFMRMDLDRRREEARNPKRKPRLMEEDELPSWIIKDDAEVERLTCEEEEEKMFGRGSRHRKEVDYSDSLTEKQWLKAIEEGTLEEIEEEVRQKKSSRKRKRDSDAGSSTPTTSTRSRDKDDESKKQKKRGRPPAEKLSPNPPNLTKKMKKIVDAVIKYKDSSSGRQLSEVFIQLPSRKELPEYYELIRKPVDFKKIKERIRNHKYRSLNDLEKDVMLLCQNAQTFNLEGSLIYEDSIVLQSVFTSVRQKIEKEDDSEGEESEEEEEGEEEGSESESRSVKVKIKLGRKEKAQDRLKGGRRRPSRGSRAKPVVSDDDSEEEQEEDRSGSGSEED

SMILES	IC50 (BRG-1) [µM]	Emax (BRG-1) [%]	BRM Max % Inhibition (BRM) [%]	IC50 (BRM) [µM]
C[C@@]1(F)COCc2ccc(C(=O)NCC(=O)Nc3nc(-c4cc(F)cc(C#N)c4)cs3)cc21 [Compound 314, (S)-N-(2-((4-(3-cyano-5-fluorophenyl)thiazol-2-yl)amino)-2-oxoethyl)-4-fluoro-4-methylisochromane-6-carboxamide]	0.1 to 1	> 90	>90	< 0.1
C[C@@]1(F)COCc2ccc(C(=O)NCC(=O)Nc3nc(-c4cccc(C#N)c4)cs3)cc21 [Compound 315, (S)-N-(2-((4-(3-cyanophenyl)thiazol-2-yl)amino)-2-oxoethyl)-4-fluoro-4-methylisochromane-6-carboxamide]	0.1 to 1	> 95	>95	< 0.1
C[C@@]1(C#N)COCc2ccc(C(=O)NCC(=O)Nc3nc(-c4cc(F)cc(C5CCO5)c4)cs3)cc21 (stereo partly drawn) [Compound 316, (R)-4-cyano-N-(2-((4-(3-fluoro-5-(oxetan-2-yl)phenyl)thiazol-2-yl)amino)-2-oxoethyl)-4-methylisochromane-6-carboxamide]	< 0.1	> 95	>95	< 0.1
C[C@@H]1CN(c2cccc(-c3csc(NC(=O)CNC(=O)c4cccc([C@]5(F)C[C@@](C)(O)C5)c4)n3)c2)C[C@H](C)O1 [Compound 317, N-(2-((4-(3-((cis)-2,6-dimethylmorpholino)phenyl)thiazol-2-yl)amino)-2-oxoethyl)-3-((1s,3s)-1-fluoro-3-hydroxy-3-methylcyclobutyl)benzamide]	1 to 5	> 95	>95	< 0.1
C[C@@H]1CN(c2cccc(-c3csc(NC(=O)CNC(=O)c4cccc(C5(F)CC6(COC6)C5)c4)n3)n2)C[C@H](C)O1 [Compound 318, N-(2-((4-(6-((cis)-2,6-dimethylmorpholino)pyridin-2-yl)thiazol-2-yl)amino)-2-oxoethyl)-3-(6-fluoro-2-oxaspiro[3.3]heptan-6-yl)benzamide]	> 5	> 90	>90	0.1 to 1
C[C@@H]1CN(c2cccc(-c3csc(NC(=O)CNC(=O)c4ccc5c(c4)[C@@H](C)COC5)n3)n2)C[C@H](C)O1 [Compound 320, (R)-N-(2-((4-(6-((cis)-2,6-dimethylmorpholino)pyridin-2-yl)thiazol-2-yl)amino)-2-oxoethyl)-4-methylisochromane-6-carboxamide]	0.1 to 1	> 95	>95	< 0.1
C[C@@H]1CN(c2cccc(-c3csc(NC(=O)CNC(=O)c4ccc5c(c4)[C@H](C)COC5)n3)n2)C[C@H](C)O1 [Compound 321, (S)-N-(2-((4-(6-((cis)-2,6-dimethylmorpholino)pyridin-2-yl)thiazol-2-yl)amino)-2-oxoethyl)-4-methylisochromane-6-carboxamide]	0.1 to 1	> 90	>90	< 0.1
C[C@@]1(C#N)COCc2ccc(C(=O)NCC(=O)Nc3nc(-c4cccc(F)c4)cs3)cc21 [Compound 322, (R)-4-cyano-N-(2-((4-(3-fluorophenyl)thiazol-2-yl)amino)-2-oxoethyl)-4-methylisochromane-6-carboxamide]	0.1 to 1	> 95	>95	< 0.1
C[C@@]1(C#N)COCc2ccc(C(=O)NCC(=O)Nc3nc(-c4ccccc4)cs3)cc21 [Compound 323, (R)-4-cyano-4-methyl-N-(2-oxo-2-((4-phenylthiazol-2-yl)amino)ethyl)isochromane-6-carboxamide]	0.1 to 1	> 95	>95	< 0.1
C[C@@H]1CN(c2cccc(-c3csc(NC(=O)CNC(=O)c4ccc5c(c4)C(O)(C(F)F)COC5)n3)c2)C[C@H](C)O1 (stereo partly drawn) [Compound 326, 4-(difluoromethyl)-N-(2-((4-(3-((cis)-2,6-dimethylmorpholino)phenyl)thiazol-2-yl)amino)-2-oxoethyl)-4-hydroxyisochromane-6-carboxamide]	0.1 to 1	> 95	>95	< 0.1
C[C@@]1(C#N)COCc2ccc(C(=O)NCC(=O)Nc3nc(-c4cccc(N5CCC56COC6)c4)cs3)cc21 [Compound 328, (R)-N-(2-((4-(3-(6-oxa-1-azaspiro[3.3]heptan-1-yl)phenyl)thiazol-2-yl)amino)-2-oxoethyl)-4-cyano-4-methylisochromane-6-carboxamide]	0.1 to 1	> 95	>95	< 0.1
C[C@@H]1CN(c2cccc(-c3csc(NC(=O)CNC(=O)c4ccc5c(c4)C(F)(C(F)F)COC5)n3)c2)C[C@H](C)O1 (stereo partly drawn) [Compound 329, 4-(difluoromethyl)-N-(2-((4-(3-((cis)-2,6-dimethylmorpholino)phenyl)thiazol-2-yl)amino)-2-oxoethyl)-4-fluoroisochromane-6-carboxamide]	< 0.1	> 95	>95	< 0.1
C[C@@]1(F)COCc2ccc(C(=O)NCC(=O)Nc3nc(-c4ccnc(C5(O)CC5)c4)cs3)cc21 [Compound 330, (S)-4-fluoro-N-(2-((4-(2-(1-hydroxycyclopropyl)pyridin-4-yl)thiazol-2-yl)amino)-2-oxoethyl)-4-methylisochromane-6-carboxamide]	0.1 to 1	> 95	>95	< 0.1
C[C@@]1(F)COCc2ccc(C(=O)NCC(=O)Nc3nc(-c4cccc(C(F)F)n4)cs3)cc21 [Compound 331, (S)-N-(2-((4-(6-(difluoromethyl)pyridin-2-yl)thiazol-2-yl)amino)-2-oxoethyl)-4-fluoro-4-methylisochromane-6-carboxamide]	0.1 to 1	> 95	>95	< 0.1
C[C@@]1(F)COCc2ccc(C(=O)NCC(=O)Nc3nc(-c4cccc(N5CCC5)c4)cs3)cc21 [Compound 332, (S)-N-(2-((4-(3-(azetidin-1-yl)phenyl)thiazol-2-yl)amino)-2-oxoethyl)-4-fluoro-4-methylisochromane-6-carboxamide]	< 0.1	> 95	>95	< 0.1
C[C@@]1(C#N)COCc2ccc(C(=O)NC3(C(=O)Nc4nc(-c5cccc(C(F)F)c5)cs4)CC3)cc21 [Compound 333, (R)-4-cyano-N-(1-((4-(3-(difluoromethyl)phenyl)thiazol-2-yl)carbamoyl)cyclopropyl)-4-methylisochromane-6-carboxamide]	1 to 5	> 75	>75	0.1 to 1
COc1cccc(-c2csc(NC(=O)CNC(=O)c3cc(OC)c4c(c3)[C@](C)(C#N)COC4)n2)c1 [Compound 335, (R)-4-cyano-8-methoxy-N-(2-((4-(3-methoxyphenyl)thiazol-2-yl)amino)-2-oxoethyl)-4-methylisochromane-6-carboxamide]	> 5	> 90	>90	0.1 to 1
COc1cccc(-c2csc(NC(=O)C3(NC(=O)c4ccc5c(c4)[C@](C)(C#N)COC5)CC3(F)F)n2)c1 (stereo partly drawn) [Compound 336, (R)-4-cyano-N-(2,2-difluoro-1-((4-(3-methoxyphenyl)thiazol-2-yl)carbamoyl)cyclopropyl)-4-methylisochromane-6-carboxamide]	1 to 5	> 85	>85	0.1 to 1
COc1cc(F)cc(-c2csc(NC(=O)CNC(=O)c3ccc4c(c3)[C@](C)(F)COC4)n2)c1 [Compound 337, (S)-4-fluoro-N-(2-((4-(3-fluoro-5-methoxyphenyl)thiazol-2-yl)amino)-2-oxoethyl)-4-methylisochromane-6-carboxamide]	< 0.1	> 95	>95	< 0.1
C[C@@H]1CN(c2cccc(-c3csc(NC(=O)CNC(=O)c4ccc5c(c4)CCCCO5)n3)n2)C[C@H](C)O1 [Compound 338, N-(2-((4-(6-((cis)-2,6-dimethylmorpholino)pyridin-2-yl)thiazol-2-yl)amino)-2-oxoethyl)-2,3,4,5-tetrahydrobenzo[b]oxepine-7-carboxamide]	0.1 to 1	> 90	>90	0.1 to 1
C[C@@]1(C#N)COCc2ccc(C(=O)NCC(=O)Nc3nc(-c4cc(F)c5c(c4)OCO5)cs3)cc21 [Compound 339, (R)-4-cyano-N-(2-((4-(7-fluorobenzo[d][1,3]dioxol-5-yl)thiazol-2-yl)amino)-2-oxoethyl)-4-methylisochromane-6-carboxamide]	< 0.1	> 95	>95	< 0.1
CC1CC(c2cccc(-c3csc(NC(=O)CNC(=O)c4ccc5c(c4)[C@](C)(C#N)COC5)n3)c2)O1 (stereo partly drawn) [Compound 340, (R)-4-cyano-4-methyl-N-(2-((4-(3-(4-methyloxetan-2-yl)phenyl)thiazol-2-yl)amino)-2-oxoethyl)isochromane-6-carboxamide]	0.1 to 1	> 95	>95	< 0.1
C[C@@]1(F)COCc2ccc(C(=O)NCC(=O)Nc3nc(-c4cccc(C(F)F)c4)cs3)cc21 [Compound 341, (S)-N-(2-((4-(3-(difluoromethyl)phenyl)thiazol-2-yl)amino)-2-oxoethyl)-4-fluoro-4-methylisochromane-6-carboxamide]	0.1 to 1	> 95	>95	< 0.1
